Measurements from US20240325550A1, “Therapeutic Compounds for Inhibiting and Reducing the Expression of Cell Surface Proteins” (KIST (Korea Institute of Science and Technology), priority 2023, published 2024).
{DBCO} = dibenzocyclooctyne group for click conjugation; d = 2'-deoxy (DNA); r = 2'-OH (RNA)

Columns and labels:
[1] = target: T1, EGFR expressed by A549 cells (Homo sapiens, UniProt P00533); test: Binding of YOYO-1-stained conjugate to EGFR on A549 cells (microscopy); conditions: 200 nM, 30 minutes
T1 construct: EGFR expressed by A549 cells; endogenous in cells; host or cells: A549 cells
Description: (§1) We tested whether the EGFR binding peptide-siRNA conjugate of Example 6 was able to specifically bind EGFR expressed by A549 cells by incubating the EGFR binding peptide-siRNA conjugate of Example 6 with A549 cells. As a control, A549 cells were incubated with the unconjugated anti-EGFR siRNA of Example 6.
A549 cells were treated with 200 nM of either the EGFR-binding peptide-conjugated siRNA of Example 6 or the unconjugated EGFR siRNA of Example 6, each stained with YOYO-1, a nucleic acid staining dye.
After 30 minutes, cells were then fixated with 4% paraformaldehyde (PFA) for 10 minutes, then washed twice with DPBS. Nuclei were then stained using Hoechst 33342 and the cells were examined for YOYO-1 staining.

[2] = target: T2, PD-L1 expressed by CT26.CL25 cells (Mus musculus, UniProt Q9EP73); test: Binding of Cy5.5-labeled conjugate to PD-L1 on CT26.CL25 cells (fluorescence microscopy); conditions: 200 nM, 30 minutes at 4° C., no antibody pre-treatment
T2 construct: PD-L1 expressed by CT26.CL25 cells; endogenous in cells; host or cells: CT26.CL25 cells
T2 sequence (Q9EP73 19-290): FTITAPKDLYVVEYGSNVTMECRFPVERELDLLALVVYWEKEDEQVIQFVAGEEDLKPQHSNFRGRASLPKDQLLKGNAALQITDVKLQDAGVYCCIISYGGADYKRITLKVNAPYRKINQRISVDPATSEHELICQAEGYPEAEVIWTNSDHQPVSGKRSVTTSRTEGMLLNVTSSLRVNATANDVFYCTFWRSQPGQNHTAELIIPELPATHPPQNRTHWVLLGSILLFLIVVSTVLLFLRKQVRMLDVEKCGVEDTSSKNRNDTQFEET
Description: as §1, with “PD-L1” for “EGFR”, “1” for “6”, “CT26.CL25” for “A549”, “CT26.CL25 cells that either had, or had not, been pre-treated with an anti-PD-L1 antibody.” for “A549 cells.”, “anti-PD-L1” for “anti-EGFR”, “1.” for “6.”
Here, 2 ml of CT26.CL25 cells (at 5×10^6 cells/ml) were seeded into each of four dishes. 24 hours after seeding, and one hour before treatment with the conjugate of Example 1, one dish was pre-treated with 1 ml of anti-PD-L1 antibody (InVivoMAb anti-mouse PD-L1, BioXCell Cat. #BE0101) at 1 mg/ml. After incubation with the antibody, the pre-treated cells were incubated with 1 ml (200 nM) of the conjugate of Example 1 for 30 minutes at 4° C. At the same time, a dish that had not been pre-treated was similarly incubated with the conjugate of Example 1, and another dish that had not been pre-treated was similarly incubated with the unconjugated anti-PD-L1 siRNA of Example 1.
Cells were then fixated with 4% paraformaldehyde (PFA) for 10 min, then washed twice with DPBS. Nuclei were then stained using Hoechst 33342 (blue of FIG. 2) and the cells were examined for Cy5.5 fluorescence (red of FIG. 2).

[3] = test system: CT26.CL25 cells; test: Internalization by CT26.CL25 cells (Cy5.5 fluorescence microscopy); assay type: cell-based; conditions: 9 hours, 18 hours and 24 hours of incubation
Description: CT26.CL25 cells were incubated, as described in Example 2, with either the PD-L1 binding peptide-siRNA conjugate of Example 1 or the unconjugated Cy5.5-labeled siRNA of Example 1. After 9 hours, 18 hours, and 24 hours of incubation, cells were then fixated with 4% paraformaldehyde (PFA) for 10 min and washed twice with DPBS.
(§2) Nuclei were stained using Hoechst 33342 (blue of FIGS. 3 and 4) and the cells were examined for Cy5.5 fluorescence (red of FIGS. 3 and 4).

[4] = test system: B16F10 cells; test: Internalization by B16F10 cells (Cy5.5 fluorescence microscopy); assay type: cell-based; conditions: 18 hours and 24 hours of incubation
Description: B16F10 cells were also incubated with either the PD-L1 binding peptide-siRNA conjugate of Example 1 or the unconjugated Cy5.5-labeled siRNA of Example 1 and similarly fixated after 18 hours and 24 hours of incubation.
as §2

Row | Substance | YOYO-1 staining on cells (binding to EGFR) [1] | Cy5.5 fluorescence on cells (binding to cell-surface PD-L1) [2] | Cy5.5 fluorescence on cells (binding to cell-surface PD-L1) ([2]; listed as unconjugated Cy5.5-labeled siRNA) | Internalization (Cy5.5 fluorescence) [3] | Internalization (Cy5.5 fluorescence) [4]
1 | siRNA: anti-EGFR siRNA: sense AUAGGCAUUGGUGAAUUUAAAGAdCdA-[DBCO] (SEQ ID NO:120), antisense UGUCUUUAAAUUCACCAAUGCCUAUGC (SEQ ID NO:121) (sense AUAGGCAUUGGUGAAUUUAAAGACA; sense: sugars from the 5' end r23 d2, 3' {DBCO}, backbone not given here; antisense: RNA, backbone not given here; sense 3' DBCO clicked to azide EGFR-binding peptide) [reference compound] | no YOYO-1 staining |  |  |  | 
2 | unconjugated Cy5.5-labeled siRNA of Example 1: anti-PD-L1 siRNA: sense GACUCAAGAUGGAACCUGAdTdT-[DBCO] (SEQ ID NO:12), antisense dTdTCUGAGUUCUACCUUGGACU-Cy5.5 (SEQ ID NO:13) (sense GACUCAAGAUGGAACCUGATT; antisense TTCUGAGUUCUACCUUGGACU; dTdT overhangs, DBCO, Cy5.5 label, chemistry not fully specified; one strand is listed 3' to 5') [reference compound] |  | very low levels of Cy5.5 fluorescence | little to no Cy5.5 fluorescence | significantly less Cy5.5 fluorescence | significantly less Cy5.5 fluorescence
